Among the data in ChEMBL document CHEMBL1130476, “Molecular modeling of the interaction of trypanocide guanyl hydrazones with B-DNA” (1997) are IC50 values, retold here.

Each structure is given as a SMILES string.

In the test the test system is Trypanosoma cruzi. As to the kind of experiment: Inhibitory dose for selectivity against Trypanosoma cruzi. It is filed as functional. To be noted: read-out: ID50 (the source's name).

As for `COc1cc(/C=N/NC(=N)N)ccc1O`, the IC50 came to 4800 µM.

For the molecule `N=C(N)N/N=C/c1ccccc1`, the IC50 is 205 µM.

For `COc1cccc(/C=N/NC(=N)N)c1OC`, the IC50 worked out at 22.5 µM.

For the molecule `N=C(N)N/N=C/c1ccc(Cl)cc1`, the IC50 came out at 27.4 µM.

For the molecule `N=C(N)N/N=C/c1cccc([N+](=O)[O-])c1O`, the IC50 stood at 877 µM.

As to `N=C(N)N/N=C/c1cc2c(cc1Br)OCO2`, the IC50 amounted to 23.7 µM.

As to `N=C(N)N/N=C/c1ccc2c(c1)OCO2`, the IC50 stood at 274 µM.
